The source of these data is BindingDB's records for doi:10.1016/j.ejmech.2013.03.032 (University of Messina, 2013).

By pKi is commonly meant −log10 of the Ki, conventionally taken in molar units. Higher therefore signals a low Ki.

Each structure is given as a SMILES string. pKi: −log10 of the molar value.

The assay deals with T1, Proteasome subunit beta type-1 (Homo sapiens, UniProt P20618).
T1 sequence (P20618 whole entry): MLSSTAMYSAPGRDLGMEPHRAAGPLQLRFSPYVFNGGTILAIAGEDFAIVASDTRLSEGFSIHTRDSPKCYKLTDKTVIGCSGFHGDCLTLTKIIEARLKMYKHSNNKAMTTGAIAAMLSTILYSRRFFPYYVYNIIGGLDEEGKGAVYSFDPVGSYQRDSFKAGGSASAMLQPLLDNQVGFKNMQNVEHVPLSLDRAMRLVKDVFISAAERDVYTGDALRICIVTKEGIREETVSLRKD
Briefly: Inhibition of human 20S proteasome post-glutamyl peptide hydrolyzing activity using Z-Leu-Leu-Glu-AMC as substrate measured over 10 mins by fluorescence assay.

Compound `CC(C)C[C@H](NC(=O)Cn1ccc2c(c1=O)CCCN2C)B(O)O` gave a pKi of 5.41.

The compound `CC(C)C[C@H](NC(=O)[C@H](C)n1ccc2ncccc2c1=O)B(O)O` had a pKi of 4.87. This pKi is 0.54 log units lower than that of the compound before.

Compound `CC(C)C[C@H](NC(=O)Cn1ccc(Nc2ccccc2)cc1=O)B(O)O` gave a pKi of 5.29.

With `CC(C)C[C@H](NC(=O)Cn1ccc(N2CCCCC2)cc1=O)B(O)O`, the negative-log Ki (pKi) is 5.85. This pKi is 0.56 log units higher than that of the compound before.

`CC(C)C[C@H](NC(=O)Cn1ccc(N2CCOCC2)cc1=O)B(O)O` gave a pKi of 6.28.

Compound `CCN(CC)c1ccn(CC(=O)N[C@@H](CC(C)C)B(O)O)c(=O)c1` gave a pKi of 5.35.

`CC(C)C[C@H](NC(=O)Cn1ccccc1=O)B(O)O` had a pKi of 5.86.
